Drawing on patent publication US20250163104A1, “MACROCYCLIC IMMUNOMODULATORS” (priority 2021, published 2025), this text covers IC50 for 14 compounds.

This assay deals with T1, human PD-1 / PD-L1-Ig binding on Jurkat cell line over-expressing human PD-1 (Jurkat-PD-1) (Homo sapiens, UniProt Q15116).
T1 construct: expressed in transfected cells; host or cells: Jurkat
Description: Jurkat-PD-1 Cell Binding High-Content Screening Assay (CBA). Type of assay: cell-based. Conditions: Jurkat-PD-1 cells, PE-labeled PD-L1-Ig 20 nM final; read-out: Jurkat HPD1_PDL1 IC50. The method in brief: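 Jurkat-hPD-1 cells in DMEM with 10% fetal calf serum receive test compound and are held at 37° C for 2 h. PE-labeled PD-L1-Ig is added at 20 nM final and left for 1 hour. Cells are then fixed and Hoechst-stained, and binding is measured by imaging.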

Where a SMILES comes first, the peptide text is derived from it. Bridges are numbered along the chain shown (N, C = ends). [ ]: non-standard residue; d: D form. The star is where a group is joined. Ala(indol-4-yl) = N[C@@H](Cc1cccc2[nH]ccc12)C(=O)O; Phe(3-CF3) = N[C@@H](Cc1cccc(C(F)(F)F)c1)C(=O)O; Phe(4-CF3) = N[C@@H](Cc1ccc(C(F)(F)F)cc1)C(=O)O; Ala(morpholin-4-yl) = N[C@@H](CN1CCOCC1)C(=O)O; Phe(4-COOH) = N[C@@H](Cc1ccc(C(=O)O)cc1)C(=O)O; Bip = N[C@@H](Cc1ccc(-c2ccccc2)cc1)C(=O)O; Phe(3-Me) = Cc1cccc(C[C@H](N)C(=O)O)c1; Phe(4-F) = N[C@@H](Cc1ccc(F)cc1)C(=O)O; Val(3-OH) = CC(C)(O)[C@H](N)C(=O)O; 4Pal = N[C@@H](Cc1ccncc1)C(=O)O; Cha = N[C@@H](CC1CCCCC1)C(=O)O; Cit = NC(=O)NCCC[C@H](N)C(=O)O; Phg = N[C@H](C(=O)O)c1ccccc1; Carboxymethyl = O=C(O)C*; Orn = NCCC[C@H](N)C(=O)O; Dab = NCC[C@H](N)C(=O)O; Dap = NC[C@H](N)C(=O)O; Propargyl = C#CC*

T1 sequence (Q15116 25-288): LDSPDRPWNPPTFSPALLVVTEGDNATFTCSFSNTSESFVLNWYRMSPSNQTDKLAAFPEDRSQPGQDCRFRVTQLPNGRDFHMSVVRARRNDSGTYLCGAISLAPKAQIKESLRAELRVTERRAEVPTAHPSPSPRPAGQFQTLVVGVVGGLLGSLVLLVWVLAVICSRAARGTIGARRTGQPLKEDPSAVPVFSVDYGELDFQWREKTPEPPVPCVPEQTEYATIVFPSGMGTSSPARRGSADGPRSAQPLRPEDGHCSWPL

On to `CC(C)C[C@@H]1NC(=O)[C@H](CCN)NC(=O)[C@@H](CC(C)C)NC(=O)[C@H](CCN)NC(=O)[C@H](CCCNC(=N)N)NC(=O)[C@H](Cc2ccc(-c3ccccc3)cc2)NC(=O)[C@H](C(C)C)NC(=O)[C@H](Cc2c[nH]c3ccccc23)NC(=O)[C@H](CC(=O)O)NC(=O)[C@H](Cc2ccc(O)cc2)NC(=O)[C@H](CC(N)=O)NC(=O)CSC[C@@H](C(=O)N[C@@H](C)C(N)=O)NC(=O)[C@H]([C@@H](C)O)NC(=O)[C@H](C(C)C)NC1=O` [Compound 1004] ({CH2CO}-NYDWV[Bip]R[Dab][dL][Dab]LVTCA-NH2; thioether N-14), for which the IC50 worked out at 0.0532 µM.

For the compound `CC[C@H](C)[C@@H]1NC(=O)[C@H](Cc2ccc(-c3ccccc3)cc2)NC(=O)[C@H](C(C)C)NC(=O)[C@H](Cc2c[nH]c3ccccc23)NC(=O)[C@H](CC(=O)O)NC(=O)[C@H](Cc2ccc(C(=O)O)cc2)NC(=O)[C@H](Cc2ccc(OCC(=O)O)cc2)NC(=O)CSC[C@@H](C(=O)N[C@@H](C)C(N)=O)NC(=O)[C@H]([C@@H](C)O)NC(=O)[C@H](C(C)C)NC(=O)[C@H](CC(C)C)NC(=O)[C@H](CCN)NC(=O)[C@@H](CC(C)C)NC(=O)[C@H](CCCN)NC1=O` [Compound 1250] ({CH2CO}-Y(Carboxymethyl)[Phe(4-COOH)]DWV[Bip]I[Orn][dL][Dab]LVTCA-NH2; thioether N-14), the IC50 was determined as 0.0069 µM.

With `Cc1cccc(C[C@@H]2NC(=O)[C@H](CC(=O)O)NC(=O)[C@H](Cc3ccc(OCC(=O)O)cc3)NC(=O)[C@H](Cc3ccc(C(F)(F)F)cc3)NC(=O)CSC[C@@H](C(=O)N[C@@H](CCN)C(N)=O)NC(=O)[C@H](CCC(=O)O)NC(=O)[C@H](C(C)(C)O)NC(=O)[C@H](CC3CCCCC3)NC(=O)[C@H](CCN)NC(=O)[C@@H](CC(C)C)NC(=O)[C@H](CCCN)NC(=O)[C@H](Cc3ccc(OCC(=O)O)cc3)NC(=O)[C@H](Cc3ccc(-c4ccccc4)cc3)NC(=O)[C@H](Cc3ccc(OCC(=O)O)cc3)NC2=O)c1` [Compound 2691] ({CH2CO}-[Phe(4-CF3)]Y(Carboxymethyl)D[Phe(3-Me)]Y(Carboxymethyl)[Bip]Y(Carboxymethyl)[Orn][dL][Dab][Cha][Val(3-OH)]EC[Dab]-NH2; thioether N-14), the IC50 came out at 0.0068 µM.

Consider `Cc1cccc(C[C@@H]2NC(=O)[C@H](CC(=O)O)NC(=O)[C@H](Cc3ccc(C(=O)O)cc3)NC(=O)[C@H](Cc3ccncc3)NC(=O)CSC[C@@H](C(=O)N[C@@H](CCN)C(N)=O)NC(=O)[C@H](CO)NC(=O)[C@H](C(C)(C)O)NC(=O)[C@H](CC3CCCCC3)NC(=O)[C@H](CCN)NC(=O)[C@@H](CC(C)C)NC(=O)[C@H](CCCN)NC(=O)[C@H](Cc3ccc(OCC(=O)O)cc3)NC(=O)[C@H](Cc3ccc(-c4ccccc4)cc3)NC(=O)[C@H](Cc3ccc(OCC(=O)O)cc3)NC2=O)c1` [Compound 2622] ({CH2CO}-[4Pal][Phe(4-COOH)]D[Phe(3-Me)]Y(Carboxymethyl)[Bip]Y(Carboxymethyl)[Orn][dL][Dab][Cha][Val(3-OH)]SC[Dab]-NH2; thioether N-14), for which the IC50 stood at 0.0027 µM.

With `CC(C)C[C@H]1NC(=O)[C@H](CCCN)NC(=O)[C@H](Cc2ccc(C(=O)O)cc2)NC(=O)[C@H](Cc2ccc(-c3ccccc3)cc2)NC(=O)[C@H](Cc2cccc3[nH]ccc23)NC(=O)[C@H](Cc2cccc(C(F)(F)F)c2)NC(=O)[C@H](CC(=O)O)NC(=O)[C@H](Cc2ccc(C(=O)O)cc2)NC(=O)[C@H](CN2CCOCC2)NC(=O)CSC[C@@H](C(=O)N[C@@H](CCN)C(N)=O)NC(=O)[C@H](CCC(=O)O)NC(=O)[C@H](C(C)C)NC(=O)[C@H](CC2CCCCC2)NC(=O)[C@H](CCN)NC1=O` [Example 2742] ({CH2CO}-[Ala(morpholin-4-yl)][Phe(4-COOH)]D[Phe(3-CF3)][Ala(indol-4-yl)][Bip][Phe(4-COOH)][Orn][dL][Dab][Cha]VEC[Dab]-NH2; thioether N-14), the IC50 came out at 0.0046 µM.

As to `CC[C@H](C)[C@@H]1NC(=O)[C@H](CCN)NC(=O)[C@@H](CC(C)C)NC(=O)[C@H](CCCN)NC(=O)[C@H](CCCNC(N)=O)NC(=O)[C@H](Cc2ccc(-c3ccccc3)cc2)NC(=O)[C@H](C(C)C)NC(=O)[C@H](Cc2c[nH]c3ccccc23)NC(=O)[C@H](CC(=O)O)NC(=O)[C@H](Cc2ccc(OCC(=O)O)cc2)NC(=O)[C@H](CN)NC(=O)CSC[C@@H](C(=O)N[C@@H](C)C(N)=O)NC(=O)[C@H]([C@@H](C)O)NC(=O)[C@H](C(C)C)NC1=O` [Compound 1317] ({CH2CO}-[Dap]Y(Carboxymethyl)DWV[Bip][Cit][Orn][dL][Dab]IVTCA-NH2; thioether N-14), the IC50 amounted to 0.912 µM.

For the compound `CC(C)C[C@@H]1NC(=O)[C@H](CCN)NC(=O)[C@@H](CC(C)C)NC(=O)[C@H](CCCN)NC(=O)[C@H](CCCNC(=N)N)NC(=O)[C@H](Cc2ccc(-c3ccccc3)cc2)NC(=O)[C@H](C(C)C)NC(=O)[C@H](Cc2c[nH]c3ccccc23)NC(=O)[C@H](CC(=O)O)NC(=O)[C@H](Cc2ccc(C(=O)O)cc2)NC(=O)[C@H](Cc2ccc(OCC(=O)O)cc2)NC(=O)CSC[C@@H](C(=O)N[C@@H](C)C(N)=O)NC(=O)[C@H]([C@@H](C)O)NC(=O)[C@H](C(C)C)NC1=O` [Compound 1243] ({CH2CO}-Y(Carboxymethyl)[Phe(4-COOH)]DWV[Bip]R[Orn][dL][Dab]LVTCA-NH2; thioether N-14), the IC50 worked out at 0.0429 µM.

As to `CC(C)C[C@H]1NC(=O)[C@H](CCCN)NC(=O)[C@H](C(C)C)NC(=O)[C@H](Cc2ccc(-c3ccccc3)cc2)NC(=O)[C@H](C(C)C)NC(=O)[C@H](Cc2c[nH]c3ccccc23)NC(=O)[C@H](CC(=O)O)NC(=O)[C@H](Cc2ccc(OCC(=O)O)cc2)NC(=O)[C@H](CCO)NC(=O)CSC[C@@H](C(=O)N[C@@H](C)C(N)=O)NC(=O)[C@H](C(C)O)NC(=O)[C@H](C(C)C)NC(=O)[C@H](CC2CCCCC2)NC(=O)[C@H](CCN)NC1=O` (some centres unmarked) [Compound 2514], the IC50 turned out to be 0.0054 µM.

For `Cc1cccc(C[C@@H]2NC(=O)[C@H](CC(=O)O)NC(=O)[C@H](Cc3ccc(C(=O)O)cc3)NC(=O)[C@H](Cc3ccc(F)cc3)NC(=O)CSC[C@@H](C(=O)N[C@@H](CCN)C(N)=O)NC(=O)[C@H](Cc3cnc[nH]3)NC(=O)[C@H](C(C)(C)O)NC(=O)[C@H](CC3CCCCC3)NC(=O)[C@H](CCN)NC(=O)[C@@H](CC(C)C)NC(=O)[C@H](CCCN)NC(=O)[C@H](Cc3ccc(OCC(=O)O)cc3)NC(=O)[C@H](Cc3ccc(-c4ccccc4)cc3)NC(=O)[C@H](Cc3ccc(OCC(=O)O)cc3)NC2=O)c1` [Compound 2684] ({CH2CO}-[Phe(4-F)][Phe(4-COOH)]D[Phe(3-Me)]Y(Carboxymethyl)[Bip]Y(Carboxymethyl)[Orn][dL][Dab][Cha][Val(3-OH)]HC[Dab]-NH2; thioether N-14), the IC50 worked out at 0.0019 µM.

Regarding `CC[C@H](C)[C@@H]1NC(=O)[C@H](Cc2ccc(-c3ccccc3)cc2)NC(=O)[C@H](C(C)C)NC(=O)[C@H](Cc2c[nH]c3ccccc23)NC(=O)[C@H](CC(=O)O)NC(=O)[C@H](Cc2ccc(O)cc2)NC(=O)[C@H](Cc2ccc(OCC(=O)O)cc2)NC(=O)CSC[C@@H](C(=O)N[C@@H](C)C(N)=O)NC(=O)[C@H]([C@@H](C)O)NC(=O)[C@H](C(C)C)NC(=O)[C@H](CC2CCCCC2)NC(=O)[C@H](CCCNC(=N)N)NC(=O)[C@@H](CC(C)C)NC(=O)[C@H](CCCN)NC1=O` [Compound 1146] ({CH2CO}-Y(Carboxymethyl)YDWV[Bip]I[Orn][dL]R[Cha]VTCA-NH2; thioether N-14), the IC50 stood at 0.0423 µM.

Regarding `CC(C)C[C@@H]1NC(=O)[C@H](CCN)NC(=O)[C@@H](CC(C)C)NC(=O)[C@H](CCCN)NC(=O)[C@H](CCCNC(N)=O)NC(=O)[C@H](Cc2ccc(-c3ccccc3)cc2)NC(=O)[C@H](C(C)C)NC(=O)[C@H](Cc2c[nH]c3ccccc23)NC(=O)[C@H](CC(=O)O)NC(=O)[C@H](Cc2ccc(O)cc2)NC(=O)[C@H](CC(N)=O)NC(=O)CSC[C@@H](C(=O)N[C@@H](C)C(N)=O)NC(=O)[C@H](CO)NC(=O)[C@H](C(C)C)NC1=O` [Compound 1109] ({CH2CO}-NYDWV[Bip][Cit][Orn][dL][Dab]LVSCA-NH2; thioether N-14), the IC50 was found to be 0.036 µM.

Consider `C#CCOc1ccc(C[C@@H]2NC(=O)[C@H](Cc3ccc(-c4ccccc4)cc3)NC(=O)[C@H](C(C)C)NC(=O)[C@H](Cc3cccc(C)c3)NC(=O)[C@H](CC(=O)O)NC(=O)[C@H](Cc3ccc(C(=O)O)cc3)NC(=O)[C@H](CN)NC(=O)CSC[C@@H](C(=O)N[C@@H](CCN)C(N)=O)NC(=O)[C@H]([C@@H](C)O)NC(=O)[C@H](C(C)C)NC(=O)[C@H](CC3CCCCC3)NC(=O)[C@H](CCN)NC(=O)[C@@H](CC(C)C)NC(=O)[C@H](CCCN)NC2=O)cc1` [Compound 2024] ({CH2CO}-[Dap][Phe(4-COOH)]D[Phe(3-Me)]V[Bip]Y(Propargyl)[Orn][dL][Dab][Cha]VTC[Dab]-NH2; thioether N-14), for which the IC50 is 0.0136 µM.

Consider `CC(C)C[C@H]1NC(=O)[C@H](CCCN)NC(=O)[C@H](CCCNC(N)=O)NC(=O)[C@H](Cc2ccc(-c3ccccc3)cc2)NC(=O)[C@H](C(C)C)NC(=O)[C@H](Cc2c[nH]c3ccccc23)NC(=O)[C@H](CC(=O)O)NC(=O)[C@H](Cc2ccc(C(F)(F)F)cc2)NC(=O)[C@H](CN)NC(=O)CSC[C@@H](C(=O)N[C@@H](C)C(N)=O)NC(=O)[C@H]([C@@H](C)O)NC(=O)[C@H](C(C)C)NC(=O)[C@H](CC2CCCCC2)NC(=O)[C@H](CCN)NC1=O` [Compound 2107] ({CH2CO}-[Dap][Phe(4-CF3)]DWV[Bip][Cit][Orn][dL][Dab][Cha]VTCA-NH2; thioether N-14), for which the IC50 worked out at 0.0447 µM.

Take `CC[C@H](C)[C@@H]1NC(=O)[C@H](Cc2ccc(-c3ccccc3)cc2)NC(=O)[C@H](c2ccccc2)NC(=O)[C@H](Cc2c[nH]c3ccccc23)NC(=O)[C@H](CC(=O)O)NC(=O)[C@H](Cc2ccc(OCC(=O)O)cc2)NC(=O)[C@H](CN)NC(=O)CSC[C@@H](C(=O)N[C@@H](C)C(N)=O)NC(=O)[C@H]([C@@H](C)O)NC(=O)[C@H](C(C)C)NC(=O)[C@H](CC2CCCCC2)NC(=O)[C@H](CCN)NC(=O)[C@@H](CC(C)C)NC(=O)[C@H](CCCN)NC1=O` [Compound 1728] ({CH2CO}-[Dap]Y(Carboxymethyl)DW[Phg][Bip]I[Orn][dL][Dab][Cha]VTCA-NH2; thioether N-14): the IC50 was 0.0292 µM.

Broadly, the IC50 is the concentration that gives 50% inhibition.
